The test system of one data set is caspase 3. As to the kind of experiment: Intracellular caspase 3 in thawed CAR-T cells prepared with inhibitor. It is filed as cell-based, human. To be noted: thawed CAR-T cells prepared with 1 μM Compound 63 vs DMSO; three donors. The method, then:
Separate compositions of CD4+ and CD8+ cells were selected from isolated PBMCs from a leukapheresis sample from the same human donor by immunoaffinity based selection, and the selected cell compositions were cryofrozen. The separate compositions of CD4+ and CD8+ T cells were subsequently thawed and mixed at a ratio of 1:1 of viable CD4+ T cells to viable CD8+ T cells. In this study, the mixed CD4+ and CD8+ cell populations were incubated in the presence of Compound 63, PI103 or no inhibitor (DMSO vehicle control) beginning at the initiation of stimulation. In more detail, the mixed CD4+ and CD8+ T cell composition was stimulated (in the presence or absence of an inhibitor, as indicated) in the presence of paramagnetic polystyrene-coated beads with attached anti-CD3 and anti-CD28 antibodies for between 18 to 30 hours, and were then transduced with a lentiviral vector encoding an anti-CD19 CAR. The CAR contained an scFv antigen-binding domain specific for CD19 (derived from FMC63), a CD28 transmembrane region, a 4-1BB costimulatory signaling region, and a CD3-zeta derived intracellular signaling domain. The cells were then expanded in the presence of cytokines typically for approximately 6-7 days. […]
The cells were assessed by flow cytometry for levels of the cell surface markers and levels of pro-apoptotic marker, intracellular caspase 3.

The subject of a further data set is anti-CD19 CAR-T cells. As to the kind of experiment: Serial stimulation assay with irradiated K562-CD19 target cells. It is filed as cell-based, human. Particulars: four rounds of restimulation with K562-CD19 cells; relative to media only. The method, then: Separate compositions of CD4+ and CD8+ cells were isolated from three human donors, activated and transduced with a viral vector encoding an anti-CD19 CAR substantially as described in Example 2. After transduction, the CD4+ and CD8+ T cells derived from each donor were separately incubated for 8 days in the presence of a mTOR kinase inhibitor to expand T cells substantially as described in Example 2, except in the presence of 200 nM PI-103, 1 μM Compound 63, or with DMSO vehicle or media only controls. CD4+ and CD8+ T cells from each donor were then separately harvested, formulated, and cryofrozen. […] Functional activities of the generated anti-CD19 CAR-T cell compositions were assessed.
The ability of cells to expand ex vivo following repeated stimulations in some aspects can indicate capacity of CAR-T cells to persist (e.g., following initial activation) and/or is indicative of function in vivo (Zhao et al. (2015) Cancer Cell, 28:415-28). […] Every 3-4 days, T cells were harvested, counted, and restimulated with new target cells using the same culture conditions after resetting cell number to initial seeding density for each round. […] The population doublings (FIG. 7A) and area under the curves (AUC) as a function of population doublings over time relative to AUC of cells expanded with media only (FIG. 7B) were determined.

The subject of data set [1] is engineered CD8+ and CD4+ T cells. As to the kind of experiment: T cell expansion of anti-CD19 CAR-transduced CD4+ and CD8+ T cells incubated with mTOR kinase inhibitor. It is filed as cell-based. To be noted: human. On the procedure:
Separate compositions of CD4+ and CD8+ cells were isolated from human leukapheresis samples by immunoaffinity-based enrichment and cryofrozen. The CD4+ and CD8+ cells of the compositions were subsequently thawed and activated by separately culturing the cells under stimulating conditions in the presence of anti-CD3/anti-CD28 magnetic beads and recombinant IL-2, IL-7 and/or IL-15 for approximately 20 hours. Cells were then transduced with a viral vector encoding an anti-CD19 chimeric antigen receptor (CAR). After transduction, the CD4+ and CD8+ cells were separately incubated in the presence of an mTOR kinase inhibitor, either Compound 155, Compound 63, or Compound 246, at various concentrations. For controls, cells were incubated with media only, DMSO vehicle, or with 200 nM PI-103. Incubation was carried out at 37° C. for approximately 8 days post-thaw with one media change, at which point the compounds were re-added to the culture media at the same concentration.
The percent of CD8+ and CD4+ T cells at the end of the process as compared to the amount of cells seeded for culture following the transduction is shown in FIG. 2. The cutoff for selecting a tolerated dose was set at 70% of the mean values of the media and DMSO controls.

With `CC(C)c1ccccc1-n1c(=O)[nH]c2c(C(N)=O)nc(-c3cccc(O)c3)nc21` [Compound 63, 2-(3-Hydroxyphenyl)-9-(2-isopropylphenyl)-8-oxo-8,9-dihydro-7H-purine-6-carboxamide], the “levels of pro-apoptotic marker intracellular caspase 3” value in the data set with caspase 3 is given as “decreased levels”. In addition, the “mean AUC of population doublings compared to T cells expanded with PI-103 or DMSO vehicle” value in the data set with anti-CD19 CAR-T cells was “larger mean AUC”. For the same compound, the “highest tolerated dose resulting in similar CD8 and CD4 T cell expansion as vehicle control” value in data set [1] was 1 µM.

(Values after US20210254000A1, “PROCESS FOR PRODUCING A T CELL COMPOSITION” (Juno Therapeutics, Inc., priority 2017, published 2021).)
